{
  "source": "paper PMC11455950",
  "about": "“Effects of SZV-2649, a new multiple ion channel inhibitor mexiletine analogue” (Scientific Reports, 2024)",
  "key": {"[1]": {"test_system": "dog Purkinje fiber preparations", "experiment": "Conventional microelectrode action potential recording, dog Purkinje fibers", "settings": "CL = 500 ms, n = 10", "description": "The effects of SZV-2649 on action potentials were studied in dog ventricular, atrial and Purkinje fiber preparations.\nAction potentials were recorded in cardiac ventricular trabeculae and papillary muscle preparations obtained from the right ventricles of Beagle dogs (10–15 kg) of either sex using the conventional microelectrode technique. Dogs were sacrificed by iv. sedation with xylazine (1 mg/kg), followed by i.v. administration of 50 mg/kg pentobarbital. After the cornea reflex disapeared the chest was opened, and the heart was rapidly removed. The heart was immediately rinsed in oxygenated modified Locke’s solution containing (in mM): NaCl 128.3, KCl 4, CaCl2 1.8, MgCl2 0.42, NaHCO3 21.4, and glucose 10. The pH of this solution was set between 7.35 and 7.4 when gassed with the mixture of 95% O2 and 5% CO2 at 37 °C.\nIsolated papillary muscle or atrial trabecula and Purkinje fiber preparations were obtained and prepared from the right ventricle and were individually mounted in a tissue chamber with the volume of 50 ml. Each preparation was initially stimulated through a pair of platinum electrodes in contact with the preparation using rectangular current pulses of 2 ms duration. These stimuli were delivered at a constant cycle length of 1000 ms for at least 60 min allowing the preparation to equilibrate before the measurements were initiated. Transmembrane potentials were recorded using conventional glass microelectrodes, filled with 3 M KCl and having tip resistances of 5–20 MΩ, connected to the input of a high impedance electrometer (Experimetria, type 309, Budapest, Hungary) which was coupled to a dual beam oscilloscope. […] Attempts were made to maintain the same impalement throughout each experiment. In case an impalement became dislodged, adjustment was attempted, and if the action potential characteristics of the re-established impalement deviated by less than 5% from the previous measurement, the experiment continued[64]–[67]. All measurements were carried out at 37 °C."}, "[2]": {"test_system": "anesthetized rats", "experiment": "Coronary artery occlusion/reperfusion-induced ventricular arrhythmias in anesthetized rats", "assay_type": "in vivo, rat", "text": "The effects of SZV-2649 were further studied in the acute ischemia-induced ventricular arrhythmia model in anasthetized rats. Mexiletine and dofetilide were used as reference compounds for comparison.\nThe surgical procedure was based on a modified method described in detail in Gömöri et al. (2020)[62]. Pentobarbital-anesthetized male Wistar-Hannover rats were mechanically ventilated and subjected to thoracic surgery to perform a 6-min coronary artery occlusion and 5-min of reperfusion for the development of ischemia-induced ventricular arrhythmias (see Fig. 6A). The right jugular vein was cannulated for the administration of SZV-2649, vehicle, mexiletine or dofetilide, and the right carotid artery was used to measure blood pressure. The three-lead electrocardiogram and body temperature were continuously registered. Ten to twelve rats per group were administered vehicle (dimethyl sulfoxide, 200 µL/kg) or the studied drugs (see above), 2 min before the onset of ischemia as a slow i.v. bolus injection through the right jugular vein. At the end of 5-min reperfusion, hearts were isolated, mounted onto a Langendorff perfusion system, and after re-occluding the coronary artery, were perfused with 5-mL of 70% ethanol via the ascending aorta to delineate the ischemic risk zone. Then the left ventricles were cut along the demarcation lines of denatured area, and the sections were weighed to determine the area of risk to normalize the extent of the ischaemic insult. We evaluated the occurrence of ventricular arrhythmias based on the recommendations of the modified Lambeth Conventions published previously by Curtis et al. (2013)[63]."}, "[3]": {"test_system": "conscious dogs", "experiment": "Basic ECG parameters in conscious dogs", "assay_type": "in vivo, dog", "description": "The effects of SZV-2649 on the basic ECG parameters in conscious dogs were investigated. […] Beagle dogs of either sex weighing 12–14 kg were used for the experiments. ECG measurements were taken in conscious animals using the standard I-III leads. QTc was calculated using the Van de Water’s formula[61]. SZV-2649 (10 mg/kg) was applied by i.v. or oral administration."}, "[4]": {"test_system": "inward rectifier potassium (IK1) current", "experiment": "Whole-cell patch-clamp, steady state current-voltage relation in dog ventricular myocytes", "assay_type": "cell-based", "settings": "10 µM, dog left ventricular myocytes", "text": "The effects of SZV-2649 on transmemrane ionic currents were investigated in dog cardiac myocytes after a 5-minute superfusion of the drug.\nFigure 4D represents the steady state current-voltage relation after 300 ms pulses from − 100 mV to 60 mV using 10 mV increments applying 3-second pulsing cycle length from the holding potential of -90 mV.\nVentricular myocytes from Beagle dogs were enzymatically dissociated as described in detail previously. A single droplet of cell suspension was placed in a transparent recording chamber mounted on the stage of an inverted microscope (Olympus IX51, Olympus, Tokyo, Japan), and individual myocytes were allowed to settle and adhere to the chamber bottom for at least 5–10 min before superfusion was initiated and maintained by gravity. Only rod-shaped cells with clear striations were used. […]\nThe membrane currents were recorded with Axopatch-200B amplifiers (Molecular Devices, Sunnyvale, CA, USA) by means of the whole-cell configuration of the patch-clamp technique. […]\nThe inward rectifier (IK1), the transient outward (Ito), the rapid (IKr) and the slow (IKs) delayed rectifier potassium currents were recorded in HEPES-buffered Tyrode’s solution. […] When IKr was recorded, IKs was inhibited by using the selective IKs blocker HMR-1556 (0.5 µM). […]"}, "[5]": {"settings": "intravenous 10 mg/kg, 30 min after administration, n = 6"}, "[6]": {"settings": "per os 10 mg/kg, 1 h after administration, n = 7"}},
  "data": [
    {"smiles": "CC(N)COc1c(I)cc(C#N)cc1I.Cl", "note": "(centres unmarked) [SZV-2649, 4-(2-aminopropoxy)-3,5-diiodobenzonitrile hydrochloride]", "values": [
      {"measurement": "melting point", "result": "216 to 219", "unit": "°C"},
      {"measurement": "APA", "setting": "[1]; 5 µM", "result": "123.8 ± 2.3", "unit": "mV"},
      {"measurement": "APD50", "setting": "[1]; 5 µM", "result": "113.6 ± 5.6", "unit": "ms"},
      {"measurement": "APD90", "setting": "[1]; 5 µM", "result": "217.4 ± 5.1", "unit": "ms"},
      {"measurement": "RP", "setting": "[1]; 5 µM", "result": "−84.7 ± 1.7", "unit": "mV"},
      {"measurement": "Vmax", "setting": "[1]; 5 µM", "result": "507.4 ± 53.4", "unit": "V/s"},
      {"measurement": "APA", "setting": "[1]; 10 µM", "result": "119.2 ± 3.3", "unit": "mV"},
      {"measurement": "APD50", "setting": "[1]; 10 µM", "result": "112.4 ± 7.9", "unit": "ms"},
      {"measurement": "APD90", "setting": "[1]; 10 µM", "result": "223.4 ± 5.6", "unit": "ms"},
      {"measurement": "RP", "setting": "[1]; 10 µM", "result": "−86.0 ± 1.1", "unit": "mV"},
      {"measurement": "Vmax", "setting": "[1]; 10 µM", "result": "415.0 ± 28.9", "unit": "V/s"},
      {"measurement": "Vmax", "setting": "[1]; […]", "result": "581.1 ± 39.0", "unit": "V/s"},
      {"measurement": "Effect on incidence of ventricular arrhythmias", "setting": "[2]; 6 min coronary artery occlusion / 5 min reperfusion, i.v. 2 min before ischemia", "result": "markedly reduced"},
      {"measurement": "Incidence of ventricular fibrillation (VF)", "setting": "[2]; during reperfusion, over 50% in control animals", "result": 0, "unit": "%"},
      {"measurement": "Effect on heart rate", "setting": "[2]; i.v. administration, anesthetized rats", "result": "significantly decreased"},
      {"measurement": "PQ", "setting": "[3]; [5]", "result": "150.6 ± 15.8", "unit": "ms"},
      {"measurement": "QRS", "setting": "[3]; [5]", "result": "52.2 ± 3.2", "unit": "ms"},
      {"measurement": "QT", "setting": "[3]; [5]", "result": "234.5 ± 5.6", "unit": "ms"},
      {"measurement": "RR", "setting": "[3]; [5]", "result": "756.1 ± 29.4", "unit": "ms"},
      {"measurement": "QTC", "setting": "[3]; intravenous 10 mg/kg, 30 min after administration, n = 6, Van de Water's formula", "result": "255.7 ± 6.3", "unit": "ms"},
      {"measurement": "PQ", "setting": "[3]; [6]", "result": "119.8 ± 7.5", "unit": "ms"},
      {"measurement": "QRS", "setting": "[3]; [6]", "result": "47.9 ± 2.4", "unit": "ms"},
      {"measurement": "QT", "setting": "[3]; [6]", "result": "215.0 ± 7.5", "unit": "ms"},
      {"measurement": "RR", "setting": "[3]; [6]", "result": "596.2 ± 44.0", "unit": "ms"},
      {"measurement": "QTC", "setting": "[3]; per os 10 mg/kg, 1 h after administration, n = 7, Van de Water's formula", "result": "250.1 ± 7.0", "unit": "ms"},
      {"measurement": "Effect on inward rectifier potassium (IK1) current, steady state current-voltage relation", "setting": "[4]", "result": "no discernible effects"}
    ]}
  ]
}
